The source of these data is ChEMBL document CHEMBL3046645, “Novel 1,3-diarylpyrazole acrylamides: synthesis, antiplatelet activity screening, and in silico evaluation studies” (Med Chem Res, 2013).

Common to all, as to assay type: functional
Assay [1] is described as follows: (§1) Antiplatelet activity in human platelet-rich plasma assessed as inhibition of collagen-induced aggregation at 100 uM incubated for 5 mins prior to collagen-challenge measured for 3 mins by turbidrometric analysis relative to control.
In assay [2] the test system is Platelet. Briefly: Antiplatelet activity in human platelet-rich plasma assessed as inhibition of arachidonic acid-induced aggregation at 100 uM incubated for 5 mins prior to arachidonic acid-challenge measured for 3 mins by turbidrometric analysis relative to control.
For assay [3], the system named is Platelet. The assay is described as §1.
The nature of assay [4]: Antiplatelet activity in human platelet-rich plasma assessed as inhibition of arachidonic acid-induced aggregation incubated for 5 mins prior to arachidonic acid-challenge measured for 3 mins by turbidrometric analysis.

Calls of active or inactive are those of the source. No cut-off for these calls is given here.

As usually defined, the inhibition is the share of the control response that was lost under treatment. On to `O=C(/C=C/c1cn(-c2ccccc2)nc1-c1ccncc1)N1CCN(C(=O)C2CCCO2)CC1` (stereo not drawn), for which the inhibition at 100 µM in assay [1] worked out at 68.9%. In addition, the inhibition entry with Platelet [2] was “inactive”. Taken in the same sequence, the figures for `CCOc1ccccc1N1CCN(C(=O)/C=C/c2cn(-c3ccccc3)nc2-c2ccncc2)CC1` were 42% and “inactive”. Turning to `COc1ccccc1N1CCN(C(=O)/C=C/c2cn(-c3ccccc3)nc2-c2ccncc2)CC1`, the inhibition result in the assay on Platelet [3] and in the assay with Platelet [2] was “inactive” throughout. For `O=C(/C=C/c1cn(-c2ccccc2)nc1-c1ccncc1)N1CCN(C(=O)c2ccco2)CC1`, in assay [1], the inhibition at 100 µM worked out at 50%. In addition, the inhibition result in the assay with Platelet [2] is “inactive”. Turning to `O=C(/C=C/c1cn(-c2ccccc2)nc1-c1ccncc1)NC1CC1`, the inhibition entry in the assay with Platelet [3] and in the assay with Platelet [2] was “inactive” throughout. `O=C(/C=C/c1cn(-c2ccccc2)nc1-c1ccncc1)N1CCOCC1`: in the assay with Platelet [2], the inhibition result was “Active”. As to `O=C(O)/C=C/c1cn(-c2ccccc2)nc1-c1ccncc1`, the inhibition entry in the assay on Platelet [3] and with Platelet [2] was “inactive” throughout. As to `COc1ccc(N2CCN(C(=O)/C=C/c3cn(-c4ccccc4)nc3-c3ccncc3)CC2)c(OC)c1OC`, the inhibition result in the assay on Platelet [3] and in the assay on Platelet [2] was “inactive” in each case.

A word on the IC50: it is the concentration at which inhibition is half-maximal. Take `O=C(/C=C/c1cn(-c2ccccc2)nc1-c1ccncc1)NCc1ccccc1`: in assay [1], the inhibition at 100 µM was 54.9%. For the same compound, the IC50 in assay [4] was 20.2 µM.

As for `O=C(/C=C/c1cn(-c2ccccc2)nc1-c1ccncc1)N1CCC(Cc2ccccc2)CC1`, the inhibition result in the assay with Platelet [3] and in the assay with Platelet [2] was “inactive” each time.

Consider `O=C(/C=C/c1cn(-c2ccccc2)nc1-c1ccncc1)N1CCN(c2ccccc2)CC1`, for which the inhibition result in the assay on Platelet [3] and in the assay with Platelet [2] was “inactive” throughout. Regarding `O=C(/C=C/c1cn(-c2ccccc2)nc1-c1ccncc1)N1CCN(c2ncccn2)CC1`, in assay [1], the inhibition at 100 µM came out at 73.1%. In the assay with Platelet [2], the inhibition entry is “inactive”. Consider `O=C(/C=C/c1cn(-c2ccccc2)nc1-c1ccncc1)N1CCCCC1`, for which the inhibition result in the assay with Platelet [2] was “Active”. Turning to `Cc1ccc(N2CCN(C(=O)/C=C/c3cn(-c4ccccc4)nc3-c3ccncc3)CC2)cc1`, the inhibition result in the assay on Platelet [3] and in the assay with Platelet [2] was “inactive” each time. In the case of `O=C(/C=C/c1cn(-c2ccccc2)nc1-c1ccncc1)NC1CCCCC1`, in assay [1], the inhibition at 100 µM came to 71.8%. For the same compound, in assay [4], the IC50 is 30.3 µM. Take `O=C(/C=C/c1cn(-c2ccccc2)nc1-c1ccncc1)N1CCN(CCOCCO)CC1`: the inhibition entry with Platelet [3] and in the assay with Platelet [2] was “inactive” throughout. Regarding `O=C(/C=C/c1cn(-c2ccccc2)nc1-c1ccncc1)N1CCN(c2ccncc2)CC1`, the inhibition at 100 µM in assay [1] turned out to be 82.5%. The inhibition result with Platelet [2] was “inactive”. For `COc1ccc(CNC(=O)/C=C/c2cn(-c3ccccc3)nc2-c2ccncc2)cc1`, the inhibition result with Platelet [3] and in the assay with Platelet [2] was “inactive” throughout. Take `Cc1cccc(N2CCN(C(=O)/C=C/c3cn(-c4ccccc4)nc3-c3ccncc3)CC2)c1C`: the inhibition result with Platelet [3] and in the assay on Platelet [2] was “inactive” each time. Take `O=C(/C=C/c1cn(-c2ccccc2)nc1-c1ccncc1)N1CCN(c2ccc(C(F)(F)F)cc2)CC1`: the inhibition at 100 µM in assay [1] is 25%. In the assay with Platelet [2], the inhibition result was “inactive”. For `O=C(/C=C/c1cn(-c2ccccc2)nc1-c1ccncc1)N1CCN(c2ccc(Cl)cc2)CC1`, the inhibition result in the assay with Platelet [3] and in the assay with Platelet [2] was “inactive” throughout.

As to `CC(=O)Oc1ccccc1C(=O)O` [ASPIRIN], the IC50 in assay [4] amounted to 7.7 µM. On to `O=C(/C=C/c1cn(-c2ccccc2)nc1-c1ccncc1)N1CCN(c2cccc(Cl)c2)CC1`, for which the inhibition result in the assay on Platelet [3] and in the assay on Platelet [2] was “inactive” each time.
